Source: ChEMBL document CHEMBL1201862, “PubChem BioAssay data set” (2004)
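How tested: cells in 96-well plates exposed to compound for 48 hours at five concentrations. Abbreviation: GI50, concentration required for 50% inhibition of growth.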 Active and inactive are the calls of the source. No stated cut-off is given here; in the data, active = GI50 up to about 1.1 µM and inactive = higher.

Key:
Experiment in all cases: growth of human tumour cells (NCI), 48 h
SF-295 = test system: SF-295
K562 = test system: K562
786-0 = test system: 786-0
UACC-62 = test system: UACC-62
SK-MEL-28 = test system: SK-MEL-28
NCI-H522 = test system: NCI-H522
OVCAR-8 = test system: OVCAR-8
NCI-H23 = test system: NCI-H23
MCF7 = test system: MCF7
UACC-257 = test system: UACC-257
SF-539 = test system: SF-539
U-251 = test system: U-251
SR = test system: SR
A498 = test system: A498
KM12 = test system: KM12
SNB-19 = test system: SNB-19
SN12C = test system: SN12C
PC-3 = test system: PC-3
HOP-62 = test system: HOP-62
MDA-N = test system: MDA-N

Structure (SMILES)	GI50 (SF-295)	GI50 (K562)	GI50 (786-0)	GI50 (UACC-62)	GI50 (SK-MEL-28)	GI50 (NCI-H522)	GI50 (OVCAR-8)	GI50 (NCI-H23)	GI50 (MCF7)	GI50 (UACC-257)	GI50 (SF-539)	GI50 (U-251)	GI50 (SR)	GI50 (A498)	GI50 (KM12)	GI50 (SNB-19)	GI50 (SN12C)	GI50 (PC-3)	GI50 (HOP-62)	GI50 (MDA-N)
NC1CC(=O)c2sccc21 (configuration not stated)	> 100 µM (inactive)	> 100 µM (inactive)	> 100 µM (inactive)	> 100 µM (inactive)	> 100 µM (inactive)	> 100 µM (inactive)	> 100 µM (inactive)	> 100 µM (inactive)	> 100 µM (inactive)	> 100 µM (inactive)	> 100 µM (inactive)	> 100 µM (inactive)	> 100 µM (inactive)	> 100 µM (inactive)	> 100 µM (inactive)	> 100 µM (inactive)	> 100 µM (inactive)	56.4 µM (inactive)	> 100 µM (inactive)	
Cc1ccc(NC(=O)C(=O)C(C(=O)/C=C/c2ccccc2)C2OC(=O)c3ccccc32)c(C)c1 (configuration not stated)	> 100 µM (inactive)	85.7 µM (inactive)	> 100 µM (inactive)	> 100 µM (inactive)	> 100 µM (inactive)	> 100 µM (inactive)		> 100 µM (inactive)		> 100 µM (inactive)	> 100 µM (inactive)	> 100 µM (inactive)	45.4 µM (inactive)	> 100 µM (inactive)	> 100 µM (inactive)	> 100 µM (inactive)	> 100 µM (inactive)		> 100 µM (inactive)	
COC(=O)c1cccc(C)c1C1CN=NC12Cc1cc(C)cc(C)c1C2=O (configuration not stated)		26.4 µM (inactive)	48.8 µM (inactive)		60.4 µM (inactive)	31.3 µM (inactive)	44.8 µM (inactive)	41.4 µM (inactive)	40.4 µM (inactive)	> 100 µM (inactive)	56.4 µM (inactive)	54.7 µM (inactive)	39 µM (inactive)	51.5 µM (inactive)	34.4 µM (inactive)	48.9 µM (inactive)	37.2 µM (inactive)		53 µM (inactive)	26.7 µM (inactive)
COc1ccccc1OCC(COC(=O)Nc1ccc(C)cc1)OC(=O)Nc1ccc(C)cc1 (configuration not stated)	21.9 µM (inactive)	18.5 µM (inactive)	20 µM (inactive)	15.3 µM (inactive)	23.7 µM (inactive)	16.1 µM (inactive)	17 µM (inactive)	23.2 µM (inactive)		19.3 µM (inactive)	19.1 µM (inactive)	13.8 µM (inactive)	22.4 µM (inactive)	> 100 µM (inactive)	20.6 µM (inactive)	18.7 µM (inactive)	17.9 µM (inactive)		38.5 µM (inactive)	
O=C1OC2C=CC1C1(CCOC1=O)C2 (configuration not stated)		> 100 µM (inactive)	> 100 µM (inactive)	28.8 µM (inactive)	> 100 µM (inactive)	> 100 µM (inactive)	> 100 µM (inactive)	> 100 µM (inactive)		> 100 µM (inactive)	> 100 µM (inactive)	> 100 µM (inactive)	> 100 µM (inactive)	> 100 µM (inactive)	> 100 µM (inactive)	> 100 µM (inactive)	> 100 µM (inactive)		> 100 µM (inactive)	
O=C(c1ccccc1)N1OCCC1Nc1ccc(Br)cc1 (configuration not stated)	2.08 µM (inactive)	0.423 µM (active)	> 10 µM (inactive)		> 10 µM (inactive)	> 10 µM (inactive)	> 10 µM (inactive)	> 10 µM (inactive)	5.97 µM (inactive)	> 10 µM (inactive)	2.08 µM (inactive)					> 10 µM (inactive)	> 10 µM (inactive)	2.04 µM (inactive)	7.57 µM (inactive)	3.8 µM (inactive)
O=[N+]([O-])c1ccc(C2CC(c3ccccc3Cl)=Nc3ccccc3S2)cc1 (configuration not stated)	7.5 µM (inactive)	1.75 µM (inactive)	3.69 µM (inactive)	3.99 µM (inactive)	8.34 µM (inactive)	2.89 µM (inactive)	2.2 µM (inactive)	6.15 µM (inactive)		12 µM (inactive)	6.65 µM (inactive)	5.27 µM (inactive)	2.01 µM (inactive)	1.87 µM (inactive)	3.08 µM (inactive)	4.3 µM (inactive)	4.02 µM (inactive)		22.3 µM (inactive)	
COC(=O)/C(=N\N)C(C(=O)C(=O)Nc1nnc(S)[nH]1)c1nc2ccc([N+](=O)[O-])cc2nc1O (configuration not stated)	> 100 µM (inactive)	> 100 µM (inactive)	> 100 µM (inactive)	> 100 µM (inactive)	> 100 µM (inactive)	> 100 µM (inactive)	> 100 µM (inactive)	> 100 µM (inactive)		> 100 µM (inactive)	> 100 µM (inactive)	> 100 µM (inactive)	> 100 µM (inactive)	> 100 µM (inactive)	> 100 µM (inactive)	> 100 µM (inactive)	> 100 µM (inactive)		> 100 µM (inactive)	
Cc1cc2c(cc1Cl)SC(NNC(=O)c1ccccc1)=NS2(=O)=O	> 10 µM (inactive)	> 10 µM (inactive)	> 10 µM (inactive)	> 10 µM (inactive)	> 10 µM (inactive)	> 10 µM (inactive)	> 10 µM (inactive)	> 10 µM (inactive)	2.21 µM (inactive)	> 10 µM (inactive)	> 10 µM (inactive)	> 10 µM (inactive)		> 10 µM (inactive)	> 10 µM (inactive)	> 10 µM (inactive)	> 10 µM (inactive)	> 10 µM (inactive)	> 10 µM (inactive)	
CC12CP(=O)(O)CC1C2(Cl)Cl (configuration not stated)	> 100 µM (inactive)	> 100 µM (inactive)	> 100 µM (inactive)	> 100 µM (inactive)	> 100 µM (inactive)	> 100 µM (inactive)	> 100 µM (inactive)	> 100 µM (inactive)	> 100 µM (inactive)	> 100 µM (inactive)	> 100 µM (inactive)	> 100 µM (inactive)	> 100 µM (inactive)	> 100 µM (inactive)	> 100 µM (inactive)	> 100 µM (inactive)	> 100 µM (inactive)	> 100 µM (inactive)	> 100 µM (inactive)	
CCOC(=O)/C1=C(\C)N(Cc2ccccc2)C(=O)c2ccccc2C(=O)c2c(OC(C)=O)ccc(OC(C)=O)c21	29 µM (inactive)	42.9 µM (inactive)	> 100 µM (inactive)	53.2 µM (inactive)	> 100 µM (inactive)	34.9 µM (inactive)	67.8 µM (inactive)		21.1 µM (inactive)	61.9 µM (inactive)	> 100 µM (inactive)	> 100 µM (inactive)	20.5 µM (inactive)	> 100 µM (inactive)	47 µM (inactive)	> 100 µM (inactive)	> 100 µM (inactive)		40.6 µM (inactive)	36 µM (inactive)
CCCCCCCCCCCCCC(=O)OCC1OC(OC)C(NC(=O)N(CCCl)N=O)C(O)C1O (configuration not stated)	7.43 µM (inactive)	12.5 µM (inactive)	2.59 µM (inactive)	1.97 µM (inactive)	25.3 µM (inactive)	> 10 µM (inactive)	21.8 µM (inactive)	12.9 µM (inactive)		14.2 µM (inactive)	3.56 µM (inactive)	12.6 µM (inactive)	3.71 µM (inactive)	27.1 µM (inactive)	24.4 µM (inactive)	18.5 µM (inactive)	25.5 µM (inactive)		17.2 µM (inactive)	
O=C(Nc1cccc([N+](=O)[O-])c1)/C(=N\NC(=O)c1ccncc1)c1nc2ccc([N+](=O)[O-])cc2nc1O	33.8 µM (inactive)	21.5 µM (inactive)	> 100 µM (inactive)	58.7 µM (inactive)	29.2 µM (inactive)	8.59 µM (inactive)	50.1 µM (inactive)	68.1 µM (inactive)		46.7 µM (inactive)	32.8 µM (inactive)	71.3 µM (inactive)	42.7 µM (inactive)	> 100 µM (inactive)	42.2 µM (inactive)	> 100 µM (inactive)	> 100 µM (inactive)		70 µM (inactive)	
NC(CSC(c1ccccc1)(c1ccccc1)c1ccccc1)C(=O)O (configuration not stated)		0.509 µM (active)	0.971 µM (active)	0.685 µM (active)	10 µM (inactive)	0.59 µM (active)	0.904 µM (active)	2.29 µM (inactive)		1.84 µM (inactive)	0.396 µM (active)	0.69 µM (active)		1.51 µM (inactive)	0.962 µM (active)	1.22 µM (inactive)	1.27 µM (inactive)	1.61 µM (inactive)	1.43 µM (inactive)	1.08 µM (active)
Cc1ccc(C(=N)c2ccccc2Cc2cccc3ccccc23)c2ccccc12	71.4 µM (inactive)	80 µM (inactive)	> 100 µM (inactive)	99.1 µM (inactive)	> 100 µM (inactive)	56.5 µM (inactive)	> 100 µM (inactive)	95.3 µM (inactive)	42.6 µM (inactive)	33.1 µM (inactive)	> 100 µM (inactive)	> 100 µM (inactive)	41.6 µM (inactive)	> 100 µM (inactive)	> 100 µM (inactive)	> 100 µM (inactive)	> 100 µM (inactive)	> 100 µM (inactive)	> 100 µM (inactive)	
Oc1ccc(C(O)(c2ccccc2)c2ccccc2)c2ccccc12	2.9 µM (inactive)	3.13 µM (inactive)	2.02 µM (inactive)	1.22 µM (inactive)	15 µM (inactive)	2.42 µM (inactive)	2.42 µM (inactive)	2.79 µM (inactive)	4.15 µM (inactive)	6.85 µM (inactive)	2 µM (inactive)	1.45 µM (inactive)	2.5 µM (inactive)		2.07 µM (inactive)	5.15 µM (inactive)	2.22 µM (inactive)	2.25 µM (inactive)	2.3 µM (inactive)	
